The results in this text go back to patent publication US20210401928A1, “ANTI-OBESITY AGENT, POLLAKIURIA IMPROVING AGENT, AND AUTONOMIC NERVOUS ACTIVITY REGULATOR” (ASAHI GROUP HOLDINGS, LTD., priority 2018, published 2021).

The test system of this data set is rat spontaneous urination. Kind of data set: Rat spontaneous urination test (metabolism cage, 7 days ingestion from drinking). Format: in vivo. As to conditions: aqueous 0.1 mg/mL LNDP solution from drinking for 7 days. As to the method:
It was confirmed from Test Example 2 that LNDP promotes the efferent hypogastric nerve activity, and it was confirmed from Test Example 3 that LNDP inhibits the efferent the pelvic splanchnic nerve activity. Influence on the bladder, which is one of the internal organs dominated by these nerves, was therefore investigated.
Male Wistar rats which are 13 weeks old were received, and quarantined and acclimated in a thermostat animal room at 18 to 28° C. in a cycle including a 12-hour light period and a 12-hour dark period for 1 week, and ten 14- to 16-week-old rats per group were tested. An aqueous 0.1 mg/mL LNDP solution or water was ingested from drinking for 7 days, and the urination amount was measured as weight with an electronic balance installed under a urine-collecting opening in raising with a metabolism cage. The weight data of the electronic balance every minute were automatically inputted into a computer. […] The total urination amount and the frequency of urination per day were found, and the urine amount per one time of urination (=the total urination amount per day/the frequency of urination per day) was calculated as to an individual of each group. […] As to the comparison of the test substance and ingestion days with respect to each measured value, two-way analysis of variance (two-way ANOVA) with replication was performed.

Ends that are not written are not given here.

As to “NIPPLTQTPVVVPPFLQPE [LNDP, Asn-Ile-Pro-Pro-Leu-Thr-Gln-Thr-Pro-Val-Val-Val-Pro-Pro-Phe-Leu-Gln-Pro-Glu]”, the “significant difference in change in body weight vs water ingestion group” value is given as “not observed” and the “significant difference in general symptoms vs water ingestion group” value is on record as “not observed”.
